Data on 4 compounds can be found in ChEMBL document CHEMBL1152107 (Bioorg Med Chem Lett, 1997).

Structures are written as SMILES. Some results are limits rather than exact numbers.

For orientation: IC50 means the concentration that inhibits the measured activity by half. The T/C is the result in the treated group divided by that in the control group, in per cent.

In assay [1] the target is Tubulin alpha chain (Sus scrofa) (UniProt P02550). Briefly: The compound was evaluated in vitro in a tubulin polymerization assay, activity expressed as potency of compound relative to Paclitaxel. Format: functional.
Sequence of Tubulin alpha chain (Sus scrofa) (P02550 whole entry, looked up): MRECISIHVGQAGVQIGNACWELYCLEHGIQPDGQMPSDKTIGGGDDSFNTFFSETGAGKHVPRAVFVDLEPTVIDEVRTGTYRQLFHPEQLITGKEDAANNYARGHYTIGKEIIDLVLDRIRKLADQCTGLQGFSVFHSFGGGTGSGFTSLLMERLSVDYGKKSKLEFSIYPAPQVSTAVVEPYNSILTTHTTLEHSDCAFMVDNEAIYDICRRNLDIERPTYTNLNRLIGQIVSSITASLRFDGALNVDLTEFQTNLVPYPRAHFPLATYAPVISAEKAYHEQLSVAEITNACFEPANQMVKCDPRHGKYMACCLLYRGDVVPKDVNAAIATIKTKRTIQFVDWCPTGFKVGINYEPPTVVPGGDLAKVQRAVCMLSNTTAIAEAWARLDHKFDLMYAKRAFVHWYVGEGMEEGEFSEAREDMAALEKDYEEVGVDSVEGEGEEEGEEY
The subject of assay [2] is HCT-116. Kind of assay: The compound was evaluated in vitro for inhibition of human colon cancer cell line HCT116. The assay is classed as functional, cell-based.
In assay [3] the test system is M109. Briefly: The compound was evaluated in vivo for the T/C ratio against M-109 lung carcinoma. Format: functional, Mus musculus.
The test system of assay [4] is HCT-116. Briefly: The compound was evaluated for the cytotoxicity against human colon cancer cell lines(HCT116), activity expressed as IC50 vs IC50 of Paclitaxel. Format: functional.

On to `CC(=O)O[C@H]1C(=O)[C@@]2(C)[C@H]([C@H](OC(=O)c3ccccc3)[C@]3(O)C[C@H](OC(=O)[C@H](O)[C@@H](OC(=O)NC(C)(C)C)c4ccccc4)C(C)=C1C3(C)C)[C@]1(OC(C)=O)CO[C@@H]1C[C@@H]2O`, for which the results for the Ratio in assay [1] and in assay [4] were 1.5 and 3.3, respectively. This compound displayed an IC50 in assay [2] of 6.6 nM. Also, in assay [3], the T/C is recorded as 166%.

As to `CC(=O)O[C@@]12CO[C@@H]1C[C@H](O)[C@@]1(C)C(=O)[C@H](O)C3=C(C)[C@@H](OC(=O)[C@H](O)[C@@H](OC(=O)NC(C)(C)C)c4ccccc4)C[C@@](O)([C@@H](OC(=O)c4ccccc4)C12)C3(C)C` (some centres not stated), the Ratio in assay [1] turned out to be 7.8; in assay [4], 5.1. In assay [2], this compound displayed an IC50 of 10.3 nM.

In the case of `CC(=O)O[C@H]1C(=O)[C@@]2(C)[C@H]([C@H](OC(=O)c3ccccc3)[C@]3(O)C[C@H](OC(=O)[C@H](O)[C@@H](O)c4ccccc4)C(C)=C1C3(C)C)[C@]1(OC(C)=O)CO[C@@H]1C[C@@H]2O`, the Ratio in assay [1] was > 100; in assay [4], >100. For the same compound, in assay [2], the IC50 was > 200 nM.

Turning to `CC(=O)O[C@H]1C(=O)[C@@]2(C)[C@H]([C@H](OC(=O)c3ccccc3)[C@]3(O)C[C@H](OC(=O)[C@H](O)[C@@H](NC(=O)c4ccccc4)c4ccccc4)C(C)=C1C3(C)C)[C@]1(OC(C)=O)CO[C@@H]1C[C@@H]2O` [PACLITAXEL], the T/C in assay [3] is listed as 166%. In assay [4], the Ratio is 1.
